Results on 24 compounds are retold here after patent US12558428B2, “Heterobifunctional compounds and their use in treating disease” (Halda Therapeutics OpCo, Inc., priority 2024, dated 2026).

The structures appear in SMILES notation.

Holding throughout (format): cell-based
Test [1] concerns T-Rex 293 cells having increased expression of estrogen receptor alpha protein. Nature of the test: Cellular growth inhibition assay, T-Rex 293 cells, (+) doxycycline. The note with it: T-REx-293, 72 h, Table 7-A; T-Rex 293 cells with doxycycline (increased ERα expression); 72 hours; CellTiter-Glo; read-out: (+) Dox GI50. An outline of the steps:
(§1)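 ERα overexpression was switched on by 3 ng/mL doxycycline in a stably transfected T-Rex 293 clone, while uninduced cells served as the comparison line. Proliferation over 72 h of compound treatment was assessed by ATP luminescence, and GI50 values came from four-parameter curves.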
On the technique in general: In ATP-based viability assays light output follows the ATP content of the culture.

Test [2] relates to T-Rex 293 cells lacking increased expression of estrogen receptor alpha protein. In words: Cellular growth inhibition assay, T-Rex 293 cells, (−) doxycycline. The note with it: T-REx-293, 72 h, Table 7-A; T-Rex 293 cells without doxycycline (lacking increased ERα expression); 72 hours; CellTiter-Glo; read-out: (−) Dox GI50. An outline of the steps: as §1
For test [3], the system named is MCF7 cells (ATCC #HTB-22). Nature of the test: Cellular growth inhibition assay, MCF7 cells purchased from ATCC. To be noted: Homo sapiens, MCF7, 144 h, Table 8-A; MCF7 cells purchased from ATCC; six days; CellTiter-Glo; read-out: GI50. An outline of the steps: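 MCF7 cells in RPMI 1640 with 10% FBS and 0.2 U/ml insulin, seeded at 1,500 cells/well (ATCC) or 225 cells/well (ECACC). Compounds added 24 h later, then 6 days at 37° C. Viability by CellTiter-Glo 2.0 luminescence. GI50 from four-parameter fit.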

As for `Cc1sc2c(c1C)C(c1ccc(N3CCC(O)(CN4CCN(c5ccc(C6=C(c7ccccc7Cl)CCCc7cc(O)ccc76)cc5)CC4)CC3)cc1)=N[C@@H](C)c1nnc(C)n1-2` [IV-20], the concentration for 50% growth inhibition (GI50) (usually the concentration at which growth is held to half of that of the control) in test [1] is less than 50 nM; in test [2], 500 to 2500 nM; in test [3], less than 50 nM.
On to `Cc1sc2c(c1C)C(c1ccc(N3CCC(F)(CN4CCC(c5ccc(C6=C(c7ccc(Cl)cc7Cl)CCCc7cc(C(=O)O)ccc76)cc5)CC4)CC3)cc1)=N[C@@H](C)c1nnc(C)n1-2` [IV-21], for which the GI50 in test [1] is less than 50 nM; in test [2] it was 500 to 2500 nM; in test [3] it was 50 to 500 nM.
For `Cc1sc2c(c1C)C(c1ccc(N3CC(CN4CC(CN5CC(c6ccc(C7=C(c8ccccc8)CCCc8cc(C(=O)O)ccc87)cc6)C5)C4)C3)cc1)=N[C@@H](C)c1nnc(C)n1-2` [IV-22] the same measures were less than 50 nM, 50 to 500 nM and less than 50 nM.
On to `Cc1sc2c(c1C)C(c1ccc(N3CC(CC4CN(CC5CN(c6ccc(C7=C(c8ccccc8)CCCc8cc(C(=O)O)ccc87)cc6)C5)C4)C3)cc1)=N[C@@H](C)c1nnc(C)n1-2` [IV-23], for which the GI50 in test [1] is less than 50 nM; in test [2], 50 to 500 nM; in test [3], less than 50 nM.
Take `Cc1sc2c(c1C)C(c1ccc(N3CC(C[C@H]4CC[C@H](CN5CC(c6ccc(C7=C(c8ccccc8)CCCc8cc(C(=O)O)ccc87)cc6)C5)CC4)C3)cc1)=N[C@@H](C)c1nnc(C)n1-2` [IV-24]: the GI50 in test [1] was less than 50 nM; in test [2] it was 500 to 2500 nM; in test [3], less than 50 nM.
Turning to `Cc1sc2c(c1C)C(c1ccc(N3CC(CN4CCN(CC5CN(c6ccc(C7=C(c8ccc(F)cc8F)CCCc8cc(C(=O)O)ccc87)cc6)C5)CC4)C3)cc1)=N[C@@H](C)c1nnc(C)n1-2` [IV-25], the GI50 was less than 50 nM in test [1], 50 to 500 nM in test [2] and less than 50 nM in test [3].
With `Cc1sc2c(c1C)C(c1ccc(N3CCC(O)(CN4CCN(c5ccc(C6=C(c7ccc(F)cc7F)CCCc7cc(C(=O)O)ccc76)cc5)CC4)CC3)cc1)=N[C@@H](C)c1nnc(C)n1-2` [IV-26], the figures for the GI50 in test [1], in test [2] and in test [3] were less than 50 nM, 500 to 2500 nM and less than 50 nM, respectively.
On to `Cc1sc2c(c1C)C(c1ccc(N3CCC(F)(CN4CCN(c5ccc(C6=C(c7ccc(Cl)cc7Cl)CCCc7cc(C(=O)O)ccc76)cc5)CC4)CC3)cc1)=N[C@@H](C)c1nnc(C)n1-2` [IV-27], for which the GI50 is 50 to 500 nM in test [1], 500 to 2500 nM in test [2] and 50 to 500 nM in test [3].
On to `Cc1sc2c(c1C)C(c1ccc(N3CCC(O)(CN4CCN(c5ccc(C6=C(c7ccccc7)CCCc7cc(C(=O)O)ccc76)c(F)c5)CC4)CC3)cc1)=N[C@@H](C)c1nnc(C)n1-2` [IV-28], for which the values for the GI50 in test [1], in test [2] and in test [3] were less than 50 nM, 500 to 2500 nM and less than 50 nM, respectively.
`Cc1sc2c(c1C)C(c1ccc(N3CC(CC4(O)CCN(CC5CN(c6ccc(C7=C(c8ccccc8)CCCc8cc(C(=O)O)ccc87)cc6)C5)CC4)C3)cc1)=N[C@@H](C)c1nnc(C)n1-2` [IV-29]: the concentration for 50% growth inhibition (GI50) in test [1] is less than 50 nM; in test [2], 50 to 500 nM; in test [3], less than 50 nM.
Take `Cc1sc2c(c1C)C(c1ccc(N3CCC(O)(CN4CCN(c5ccc(C6=C(c7ccc(Cl)cc7Cl)CCCc7cc(C(=O)O)ccc76)cc5)CC4)CC3)cc1)=N[C@H](Cc1ncco1)c1nnc(C)n1-2` [IV-30]: the concentration for 50% growth inhibition (GI50) in test [1] is 500 to 2500 nM; in test [2] it was 500 to 2500 nM; in test [3] it was 50 to 500 nM.
`Cc1sc2c(c1C)C(c1ccc(N3CCC(O)(CN4CCN(c5ccc(C6=C(c7ccc(Cl)cc7Cl)CCCc7cc(C(=O)O)ccc76)cc5)CC4)CC3)cc1)=N[C@@H](Cc1ncco1)c1nnc(C)n1-2` [IV-31]: the GI50 was less than 50 nM in test [1], 50 to 500 nM in test [2] and less than 50 nM in test [3].
With `Cc1sc2c(c1C)C(c1ccc(C3CN(C[C@H]4CC[C@H](CN5CC(c6ccc(C7=C(c8ccccc8)CCCc8cc(C(=O)O)ccc87)cc6)C5)CC4)C3)cc1)=N[C@@H](C)c1nnc(C)n1-2` [IV-32], the GI50 in test [1] was less than 50 nM; in test [2], 50 to 500 nM; in test [3], 50 to 500 nM.
For `Cc1sc2c(c1C)C(c1ccc(N3CCC(O)(CN4CCN(c5ccc(C6=C(c7ccccc7)CCCc7cc(C(=O)O)ccc76)cc5F)CC4)CC3)cc1)=N[C@@H](C)c1nnc(C)n1-2` [IV-33], the GI50 in test [1] was less than 50 nM; in test [2], 500 to 2500 nM; in test [3] it was less than 50 nM.
As to `Cc1sc2c(c1C)C(c1ccc(N3CCC(O)(CN4CCN(c5ccc(C6=C(c7ccccc7Cl)CCCc7cc(C(=O)O)ccc76)c(F)c5)CC4)CC3)cc1)=N[C@@H](C)c1nnc(C)n1-2` [IV-34], the GI50 is less than 50 nM in test [1], 50 to 500 nM in test [2] and less than 50 nM in test [3].
Regarding `Cc1sc2c(c1C)C(c1ccc(N3CCC(O)(CN4CCN(c5ccc(C6=C(c7ccccc7Cl)CCCc7cc(C(=O)O)ccc76)cc5F)CC4)CC3)cc1)=N[C@@H](C)c1nnc(C)n1-2` [IV-35], the GI50 in test [1] was less than 50 nM; in test [2], 500 to 2500 nM; in test [3] it was less than 50 nM.
`Cc1sc2c(c1C)C(c1ccc(N3CC(CN4CC(CC5CN(c6ccc(C7=C(c8ccccc8)CCCc8cc(C(=O)O)ccc87)cc6)C5)C4)C3)cc1)=N[C@@H](C)c1nnc(C)n1-2` [IV-36]: the GI50 in test [1] was less than 50 nM; in test [2], 50 to 500 nM; in test [3], less than 50 nM.
In the case of `Cc1sc2c(c1C)C(c1ccc(N3CCC(O)(CN4CCN(c5ccc(C6=C(c7ccc(F)cc7)CCCc7cc(C(=O)O)ccc76)cc5)CC4)CC3)cc1)=N[C@@H](C)c1nnc(C)n1-2` [IV-37], the GI50 in test [1] was less than 50 nM; in test [2], 500 to 2500 nM; in test [3], less than 50 nM.
As to `Cc1sc2c(c1C)C(c1ccc(N3CC(CN4CCN(CC5CN(c6ccc(C7=C(c8ccc(F)cc8)CCCc8cc(C(=O)O)ccc87)cc6)C5)CC4)C3)cc1)=N[C@@H](C)c1nnc(C)n1-2` [IV-38], the GI50 in test [1] is less than 50 nM; in test [2] it was 500 to 2500 nM; in test [3] it was less than 50 nM.
Consider `Cc1sc2c(c1C)C(c1ccc(N3CCC(CN4CCN(c5ccc(C6=C(c7ccccc7)CCCc7cc(O)ccc76)cc5)CC4)CC3)cc1)=N[C@@H](C)c1nnc(C)n1-2` [IV-39], for which the GI50 in test [1] was less than 50 nM; in test [2] it was greater than 2500 nM; in test [3] it was 50 to 500 nM.
Take `Cc1sc2c(c1C)C(c1ccc(N3CCC(CN4CCN(c5ccc(C6=C(c7ccccc7Cl)CCCc7cc(O)ccc76)cc5)CC4)CC3)cc1)=N[C@@H](C)c1nnc(C)n1-2` [IV-40]: the GI50 in test [1] was less than 50 nM; in test [2], greater than 2500 nM; in test [3] it was less than 50 nM.
Turning to `Cc1sc2c(c1C)C(c1ccc(N3CC4(CC(CN5CCC(c6ccc(C7=C(c8ccccc8)CCCc8cc(C(=O)O)ccc87)cc6)CC5)C4)C3)cc1)=N[C@@H](C)c1nnc(C)n1-2` [IV-41], the GI50 in test [1] is less than 50 nM; in test [2], 50 to 500 nM; in test [3], less than 50 nM.
In the case of `Cc1sc2c(c1C)C(c1ccc(N3CC(CC4(O)CN(CC5CN(c6ccc(C7=C(c8ccccc8)CCCc8cc(C(=O)O)ccc87)cc6)C5)C4)C3)cc1)=N[C@@H](C)c1nnc(C)n1-2` [IV-42], the GI50 in test [1] is less than 50 nM; in test [2] it was 50 to 500 nM; in test [3], less than 50 nM.
In the case of `Cc1sc2c(c1C)C(c1ccc(N3CC(O)(CC4CN(CC5CN(c6ccc(C7=C(c8ccccc8)CCCc8cc(C(=O)O)ccc87)cc6)C5)C4)C3)cc1)=N[C@@H](C)c1nnc(C)n1-2` [IV-43], the GI50 in test [1] was less than 50 nM; in test [2], 50 to 500 nM; in test [3] it was less than 50 nM.
